Test system: NOMO1
Assay: cell viability relative to DMSO control; higher = less cytotoxic
Settings: 48 h
Procedure, shortened: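 Viability was expressed as a per-plate percentage of DMSO wells, with cell-free wells as background. Leukemia cells (NOMO1 or SEM at 500 cells/well, P12-Ichikawa at 1000 cells/well) were adapted for at least four passages in each medium and seeded in 1536-well plates (5 μl). Library compounds in DMSO were pin-dosed over an 11-point threefold series from 47 μM to 0.79 nM, and CellTiter-Glo One luminescence was read after 48 h at 37°C.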

[1] = HPLM + 10% dialyzed FBS, 0.000781 µM
[2] = HPLM + 10% dialyzed FBS, 0.00234 µM
[3] = HPLM + 10% dialyzed FBS, 0.00702 µM
[4] = HPLM + 10% dialyzed FBS, 0.0211 µM
[5] = HPLM + 10% dialyzed FBS, 0.0632 µM
[6] = HPLM + 10% dialyzed FBS, 0.19 µM
[7] = HPLM + 10% dialyzed FBS, 0.569 µM
[8] = HPLM + 10% dialyzed FBS, 1.71 µM
[9] = HPLM + 10% dialyzed FBS, 5.12 µM
[10] = HPLM + 10% dialyzed FBS, 15.4 µM
[11] = HPLM + 10% dialyzed FBS, 46.1 µM
[12] = RPMI 5 mM glucose + 10% FBS, 0.000781 µM
[13] = RPMI 5 mM glucose + 10% FBS, 0.00234 µM
[14] = RPMI 5 mM glucose + 10% FBS, 0.00702 µM
[15] = RPMI 5 mM glucose + 10% FBS, 0.0211 µM
[16] = RPMI 5 mM glucose + 10% FBS, 0.0632 µM
[17] = RPMI 5 mM glucose + 10% FBS, 0.19 µM
[18] = RPMI 5 mM glucose + 10% FBS, 0.569 µM
[19] = RPMI 5 mM glucose + 10% FBS, 1.71 µM
[20] = RPMI 5 mM glucose + 10% FBS, 5.12 µM
[21] = RPMI 5 mM glucose + 10% FBS, 15.4 µM
[22] = RPMI 5 mM glucose + 10% FBS, 46.1 µM
[23] = RPMI 5 mM glucose + 10% dialyzed FBS, 0.000781 µM
[24] = RPMI 5 mM glucose + 10% dialyzed FBS, 0.00234 µM
[25] = RPMI 5 mM glucose + 10% dialyzed FBS, 0.00702 µM
[26] = RPMI 5 mM glucose + 10% dialyzed FBS, 0.0211 µM
[27] = RPMI 5 mM glucose + 10% dialyzed FBS, 0.0632 µM
[28] = RPMI 5 mM glucose + 10% dialyzed FBS, 0.19 µM
[29] = RPMI 5 mM glucose + 10% dialyzed FBS, 0.569 µM
[30] = RPMI 5 mM glucose + 10% dialyzed FBS, 1.71 µM
[31] = RPMI 5 mM glucose + 10% dialyzed FBS, 5.12 µM
[32] = RPMI 5 mM glucose + 10% dialyzed FBS, 15.4 µM
[33] = RPMI 5 mM glucose + 10% dialyzed FBS, 46.1 µM

| Structure (SMILES) | cell viability [1] | cell viability [2] | cell viability [3] | cell viability [4] | cell viability [5] | cell viability [6] | cell viability [7] | cell viability [8] | cell viability [9] | cell viability [10] | cell viability [11] | cell viability [12] | cell viability [13] | cell viability [14] | cell viability [15] | cell viability [16] | cell viability [17] | cell viability [18] | cell viability [19] | cell viability [20] | cell viability [21] | cell viability [22] | cell viability [23] | cell viability [24] | cell viability [25] | cell viability [26] | cell viability [27] | cell viability [28] | cell viability [29] | cell viability [30] | cell viability [31] | cell viability [32] | cell viability [33] |
| --- | --- | --- | --- | --- | --- | --- | --- | --- | --- | --- | --- | --- | --- | --- | --- | --- | --- | --- | --- | --- | --- | --- | --- | --- | --- | --- | --- | --- | --- | --- | --- | --- | --- |
| O=C1c2cccc(O)c2C(=O)c2c(O)cc(CO)cc21 | 89.5% | 109% | 87.5% | 89.8% | 98.5% | 81.8% | 82.5% | 86.5% | 81.9% | 75.8% | 76.8% | 96.8% | 92.5% | 92.1% | 91.9% | 87.1% | 88.3% | 90.6% | 92.8% | 81.9% | 85.5% | 78.9% | 97.8% | 106% | 104% | 95.4% | 100% | 93.1% | 102% | 79.7% | 85.2% | 94.5% | 94.3% |
| COc1ccc2cc(-c3[nH]c(-c4ccc([S+](C)[O-])cc4)nc3-c3ccncc3)ccc2c1 (centres undefined) | 115% | 118% | 124% | 118% | 136% | 143% | 148% | 126% | 120% | 143% | 111% | 100% | 103% | 114% | 113% | 114% | 99.1% | 107% | 111% | 108% | 110% | 134% | 111% | 98.5% | 106% | 118% | 121% | 113% | 130% | 123% | 127% | 150% | 119% |
| COC(=O)N[C@H](C(=O)N[C@@H](Cc1ccccc1)[C@@H](O)CN(Cc1ccc(-c2ccccn2)cc1)NC(=O)[C@@H](NC(=O)OC)C(C)(C)C)C(C)(C)C |  |  |  |  |  |  |  |  |  |  |  | 101% | 105% | 113% | 100% | 106% | 103% | 114% | 110% | 111% | 97.8% | 93.4% | 112% | 102% | 114% | 116% | 113% | 103% | 97.3% | 101% | 110% | 101% | 94.9% |
| c1ccc2c(-c3cnn4cc(-c5ccc(N6CCNCC6)cc5)cnc34)ccnc2c1 | 79.8% | 77.8% | 134% | 166% | 144% | 143% | 146% | 121% | 114% | 111% | 90.3% | 93.8% | 91.3% | 139% | 133% | 132% | 137% | 128% | 126% | 122% | 120% | 87.7% | 83.9% | 72% | 122% | 120% | 173% | 150% | 141% | 144% | 146% | 117% | 77.8% |
| CN(C(=O)c1ccc(F)cc1C(F)(F)F)C1CCN(c2nnc(-c3ccnn3C)c3ccccc23)CC1 | 61.1% | 79% | 87.1% | 83.2% | 102% | 97.8% | 83.4% | 95.2% | 85.2% | 88.8% | 77.9% | 66% | 71.6% | 69.4% | 83.3% | 82.3% | 84.8% | 11.9% | 82.8% | 79.6% | 76.6% | 75% | 76% | 85.4% | 79.9% | 86.8% | 77.6% | 86.3% | 77.1% | 80.7% | 82.2% | 78% | 41.9% |
| c1ccc2c(Oc3nc(Nc4ccc(N5CCOCC5)cc4)c4ncn(C5CCCCC5)c4n3)cccc2c1 |  |  |  |  |  |  |  |  |  |  |  | 113% | 117% | 129% | 127% | 126% | 133% | 131% | 149% | 132% | 153% | 136% | 102% | 121% | 126% | 143% | 125% | 146% | 139% | 127% | 123% | 124% | 135% |
| C[C@H]1[C@@H](CC(C[C@H]2O[C@@H]3O[C@]4(C)CC[C@H]5[C@H](C)CC[C@@H]([C@H]2C)[C@@]35OO4)C[S+](=O)([O-])c2ccc(COC(=O)N(C)C)cc2)O[C@@H]2O[C@]3(C)CC[C@H]4[C@H](C)CC[C@@H]1[C@@]24OO3 | 122% | 123% | 116% | 120% | 127% | 110% | 44.8% | 22.5% | 22.3% | 17.9% | 10.8% | 114% | 119% | 113% | 98.9% | 103% | 101% | 82.5% | 28% | 21.8% | 17% | 15.1% | 109% | 118% | 100% | 110% | 108% | 91.9% | 32.3% | 22.5% | 24% | 18.8% | 14.8% |

Reference: the supplement of paper PMC11451515
